Columns and labels:
Conditions in all cases: 72 h
[1] = test system: HepG2; assay: cell viability relative to DMSO; higher = less toxic
[2] = test system: Calu-3; assay: as above
[3] = test system: Vero E6; assay: as above
[4] = test system: U2OS; assay: as above
[5] = test system: Caco-2; assay: as above
[6] = test system: HepG2; assay: relative viability EC50 (midpoint between 100% and the lowest measured viability); higher = less toxic
[7] = test system: Calu-3; assay: as above
[8] = test system: Vero E6; assay: as above
[9] = test system: U2OS; assay: as above
[10] = test system: Caco-2; assay: as above
[11] = test system: HepG2; assay: drug sensitivity score (DSS) for viability; higher = more toxic; extreme values may be limits of the assay
[12] = test system: Calu-3; assay: as above
[13] = test system: Vero E6; assay: as above
[14] = test system: U2OS; assay: as above
[15] = test system: Caco-2; assay: as above

## CS(=O)(=O)c1ccc(-c2cnc(NCc3ccco3)n3cnnc23)cc1 [EED226]
[1]; 1 nM
  cell viability: 99.8%
[1]; 10 nM
  cell viability: 92.8%
[1]; 100 nM
  cell viability: 94.6%
[1]; 1000 nM
  cell viability: 102%
[1]; 10000 nM
  cell viability: 87%
[2]; 1 nM
  cell viability: 102%
[2]; 10 nM
  cell viability: 102%
[2]; 100 nM
  cell viability: 94.4%
[2]; 1000 nM
  cell viability: 111%
[2]; 10000 nM
  cell viability: 111%
[3]; 1 nM
  cell viability: 107%
[3]; 10 nM
  cell viability: 100%
[3]; 100 nM
  cell viability: 103%
[3]; 1000 nM
  cell viability: 105%
[3]; 10000 nM
  cell viability: 98%
[4]; 1 nM
  cell viability: 98.3%
[4]; 10 nM
  cell viability: 97.1%
[4]; 100 nM
  cell viability: 98.5%
[4]; 1000 nM
  cell viability: 97.4%
[4]; 10000 nM
  cell viability: 98%
[5]; 1 nM
  cell viability: 95.7%
[5]; 10 nM
  cell viability: 82.8%
[5]; 100 nM
  cell viability: 104%
[5]; 1000 nM
  cell viability: 88.1%
[5]; 10000 nM
  cell viability: 103%
[6]
  relative viability EC50: > 10 µM
[7]
  relative viability EC50: > 10 µM
[8]
  relative viability EC50: > 10 µM
[9]
  relative viability EC50: > 10 µM
[10]
  relative viability EC50: > 10 µM
[11]
  drug sensitivity score: 0.1
[12]
  drug sensitivity score: 0
[13]
  drug sensitivity score: 0
[14]
  drug sensitivity score: 0
[15]
  drug sensitivity score: 0

## CC/C=C\C/C=C\C/C=C\C/C=C\C/C=C\C/C=C\CCC(=O)OCC [doconexent-ethyl-ester]
[1]; 1 nM
  cell viability: 100%
[1]; 10 nM
  cell viability: 98.9%
[1]; 100 nM
  cell viability: 87.1%
[1]; 1000 nM
  cell viability: 107%
[1]; 10000 nM
  cell viability: 87.2%
[2]; 1 nM
  cell viability: 99.1%
[2]; 10 nM
  cell viability: 104%
[2]; 100 nM
  cell viability: 104%
[2]; 1000 nM
  cell viability: 103%
[2]; 10000 nM
  cell viability: 108%
[3]; 1 nM
  cell viability: 99.5%
[3]; 10 nM
  cell viability: 101%
[3]; 100 nM
  cell viability: 98.9%
[3]; 1000 nM
  cell viability: 102%
[3]; 10000 nM
  cell viability: 102%
[4]; 1 nM
  cell viability: 93.6%
[4]; 10 nM
  cell viability: 96.9%
[4]; 100 nM
  cell viability: 97.3%
[4]; 1000 nM
  cell viability: 103%
[4]; 10000 nM
  cell viability: 99.8%
[5]; 1 nM
  cell viability: 96.9%
[5]; 10 nM
  cell viability: 108%
[5]; 100 nM
  cell viability: 96.1%
[5]; 1000 nM
  cell viability: 96.5%
[5]; 10000 nM
  cell viability: 100%
[6]
  relative viability EC50: > 10 µM
[7]
  relative viability EC50: > 10 µM
[8]
  relative viability EC50: > 10 µM
[9]
  relative viability EC50: > 10 µM
[10]
  relative viability EC50: > 10 µM
[11]
  drug sensitivity score: 0
[12]
  drug sensitivity score: 0
[13]
  drug sensitivity score: 0
[14]
  drug sensitivity score: 0
[15]
  drug sensitivity score: 0

## CCC(C)n1ncn(-c2ccc(N3CCN(c4ccc(OCC5COC(Cn6cncn6)(c6ccc(Cl)cc6Cl)O5)cc4)CC3)cc2)c1=O (stereo not given) [itraconazole]
[1]; 1 nM
  cell viability: 92.7%
[1]; 10 nM
  cell viability: 94.9%
[1]; 100 nM
  cell viability: 101%
[1]; 1000 nM
  cell viability: 92.7%
[1]; 10000 nM
  cell viability: 97.6%
[2]; 1 nM
  cell viability: 91.1%
[2]; 10 nM
  cell viability: 102%
[2]; 100 nM
  cell viability: 101%
[2]; 1000 nM
  cell viability: 104%
[2]; 10000 nM
  cell viability: 98.6%
[3]; 1 nM
  cell viability: 92.9%
[3]; 10 nM
  cell viability: 87.4%
[3]; 100 nM
  cell viability: 87.2%
[3]; 1000 nM
  cell viability: 87.9%
[3]; 10000 nM
  cell viability: 108%
[4]; 1 nM
  cell viability: 92.1%
[4]; 10 nM
  cell viability: 99.5%
[4]; 100 nM
  cell viability: 93.9%
[4]; 1000 nM
  cell viability: 102%
[4]; 10000 nM
  cell viability: 109%
[5]; 1 nM
  cell viability: 103%
[5]; 10 nM
  cell viability: 101%
[5]; 100 nM
  cell viability: 111%
[5]; 1000 nM
  cell viability: 99.7%
[5]; 10000 nM
  cell viability: 97.2%
[6]
  relative viability EC50: > 10 µM
[7]
  relative viability EC50: > 10 µM
[8]
  relative viability EC50: > 10 µM
[9]
  relative viability EC50: > 10 µM
[10]
  relative viability EC50: > 10 µM
[11]
  drug sensitivity score: 0
[12]
  drug sensitivity score: 0
[13]
  drug sensitivity score: 0
[14]
  drug sensitivity score: 0
[15]
  drug sensitivity score: 0

## CC[N+](CC)(CC)CC(=O)Nc1c(C)cccc1C [QX-314]
[1]; 1 nM
  cell viability: 95.3%
[1]; 10 nM
  cell viability: 104%
[1]; 100 nM
  cell viability: 92.6%
[1]; 1000 nM
  cell viability: 94.4%
[1]; 10000 nM
  cell viability: 95.7%
[2]; 1 nM
  cell viability: 102%
[2]; 10 nM
  cell viability: 93.6%
[2]; 100 nM
  cell viability: 89.1%
[2]; 1000 nM
  cell viability: 96.9%
[2]; 10000 nM
  cell viability: 89.2%
[3]; 1 nM
  cell viability: 95.9%
[3]; 10 nM
  cell viability: 99.2%
[3]; 100 nM
  cell viability: 93.7%
[3]; 1000 nM
  cell viability: 97.8%
[3]; 10000 nM
  cell viability: 93.6%
[4]; 1 nM
  cell viability: 103%
[4]; 10 nM
  cell viability: 96.9%
[4]; 100 nM
  cell viability: 102%
[4]; 1000 nM
  cell viability: 95.7%
[4]; 10000 nM
  cell viability: 101%
[5]; 1 nM
  cell viability: 91.8%
[5]; 10 nM
  cell viability: 93.4%
[5]; 100 nM
  cell viability: 97%
[5]; 1000 nM
  cell viability: 102%
[5]; 10000 nM
  cell viability: 95.6%
[6]
  relative viability EC50: > 10 µM
[7]
  relative viability EC50: > 10 µM
[8]
  relative viability EC50: > 10 µM
[9]
  relative viability EC50: > 10 µM
[10]
  relative viability EC50: > 10 µM
[11]
  drug sensitivity score: 0
[12]
  drug sensitivity score: 0
[13]
  drug sensitivity score: 0
[14]
  drug sensitivity score: 0
[15]
  drug sensitivity score: 0

## O=C1C(=C(O)/C=C/c2ccc(O)cc2)C(=O)[C@@](O)([C@@H]2O[C@H](CO)[C@@H](O)[C@H](O)[C@H]2O)C(=O)[C@H]1[C@@H]1O[C@H](CO)[C@@H](O)[C@H](O)[C@H]1O
[1]; 1 nM
  cell viability: 102%
[1]; 10 nM
  cell viability: 97.2%
[1]; 100 nM
  cell viability: 104%
[1]; 1000 nM
  cell viability: 102%
[1]; 10000 nM
  cell viability: 106%
[2]; 1 nM
  cell viability: 103%
[2]; 10 nM
  cell viability: 97.6%
[2]; 100 nM
  cell viability: 102%
[2]; 1000 nM
  cell viability: 101%
[2]; 10000 nM
  cell viability: 97.9%
[3]; 1 nM
  cell viability: 101%
[3]; 10 nM
  cell viability: 98.1%
[3]; 100 nM
  cell viability: 98.5%
[3]; 1000 nM
  cell viability: 95.8%
[3]; 10000 nM
  cell viability: 98.5%
[4]; 1 nM
  cell viability: 101%
[4]; 10 nM
  cell viability: 97.8%
[4]; 100 nM
  cell viability: 95%
[4]; 1000 nM
  cell viability: 99.3%
[4]; 10000 nM
  cell viability: 98.6%
[5]; 1 nM
  cell viability: 102%
[5]; 10 nM
  cell viability: 91.2%
[5]; 100 nM
  cell viability: 93.1%
[5]; 1000 nM
  cell viability: 93.3%
[5]; 10000 nM
  cell viability: 95.8%
[6]
  relative viability EC50: > 10 µM
[7]
  relative viability EC50: > 10 µM
[8]
  relative viability EC50: > 10 µM
[9]
  relative viability EC50: > 10 µM
[10]
  relative viability EC50: > 10 µM
[11]
  drug sensitivity score: 0
[12]
  drug sensitivity score: 0
[13]
  drug sensitivity score: 0
[14]
  drug sensitivity score: 0
[15]
  drug sensitivity score: 0

## c1ccc(CN2CCC3(CCc4ccccc43)CC2)cc1
[1]; 1 nM
  cell viability: 95.1%
[1]; 10 nM
  cell viability: 101%
[1]; 100 nM
  cell viability: 91.9%
[1]; 1000 nM
  cell viability: 106%
[1]; 10000 nM
  cell viability: 102%
[2]; 1 nM
  cell viability: 99.6%
[2]; 10 nM
  cell viability: 98.5%
[2]; 100 nM
  cell viability: 108%
[2]; 1000 nM
  cell viability: 95.4%
[2]; 10000 nM
  cell viability: 96.5%
[3]; 1 nM
  cell viability: 97.1%
[3]; 10 nM
  cell viability: 97%
[3]; 100 nM
  cell viability: 92.8%
[3]; 1000 nM
  cell viability: 94.4%
[3]; 10000 nM
  cell viability: 104%
[4]; 1 nM
  cell viability: 102%
[4]; 10 nM
  cell viability: 102%
[4]; 100 nM
  cell viability: 101%
[4]; 1000 nM
  cell viability: 99.6%
[4]; 10000 nM
  cell viability: 99.6%
[5]; 1 nM
  cell viability: 96.9%
[5]; 10 nM
  cell viability: 97.5%
[5]; 100 nM
  cell viability: 99%
[5]; 1000 nM
  cell viability: 93%
[5]; 10000 nM
  cell viability: 89.6%
[6]
  relative viability EC50: > 10 µM
[7]
  relative viability EC50: > 10 µM
[8]
  relative viability EC50: > 10 µM
[9]
  relative viability EC50: > 10 µM
[10]
  relative viability EC50: > 10 µM
[11]
  drug sensitivity score: 0
[12]
  drug sensitivity score: 0
[13]
  drug sensitivity score: 0
[14]
  drug sensitivity score: 0
[15]
  drug sensitivity score: 0

— the supplement of paper PMC13380429
